The numbers were not newly measured in patent US20050106263A1, “Green tea, multivitamin, mineral and herb based hair and male facial skin formulas” (priority 2003, published 2005), which cites them from elsewhere.

Structures are written as SMILES.

For data set [1] the following is noted: in vivo.
For the next data set, the system named is hair loss. As to conditions: comparison drug, general statement.

Take `O=C(O[C@@H]1Cc2c(O)cc(O)cc2O[C@@H]1c1cc(O)c(O)c(O)c1)c1cc(O)c(O)c(O)c1` [EGCG, epigallocatchin-3-gallate]: the oral bioavailability result in data set [1] is given as “low oral bioavailability”.

As for `Nc1cc(N2CCCCC2)nc(N)[n+]1[O-]` [Rogaine], in the data set on hair loss, the “effect on front hairline” value is given as “does not work well on the front hairline” and the “persistence of effect after use is stopped” value is on record as “must be continually used or its effects will not only cease but will reverse”.
